Assay results published in patent US20100203110A1, “Therapeutics for Cancer Using 3-Bromopyruvate and Other Selective Inhibitors of ATP Production” (The Johns Hopkins University, priority 2006, published 2010).

Experiments:
[1] = tested on: mitochondrial hexokinase of the VX2 tumor; test: Hexokinase activity assay coupled to glucose-6-phosphate dehydrogenase; assay type: biochemical, rabbit; conditions: VX2 tumor mitochondria, cell free
Experimental: The freshly isolated liver or VX2 tumor tissues (15-20 g wet weight) was rinsed in 3 volumes of H-medium (210 mM D-mannitol, 70 mM sucrose, 2 mM Hepes, and 0.05% bovine albumin, pH 7.4) at 4° C. and minced with a razor blade as finely as possible. A 30% (V/V) suspension was made using ice-cold H-medium in a Potter-Elvehjem glass homogenizer (55 ml capacity), and homogenization was achieved by applying 4 complete up and down strokes through the suspension with a rotating (˜400 rpm), serrated, teflon pestle attached to a motor. To remove cell debris and nuclei, the resultant homogenate was diluted to twice the initial volume and centrifuged at 630×g for 8 minutes at 4° C. in a Sorvall RC-2B centrifuge using a GSA rotor. The supernatant was removed and then centrifuged at 6,800 g for 15 min under the same conditions. The resultant supernatant was saved and referred to here as the cytosolic faction. The pellet was resuspended in the initial volume of H-medium and centrifuged twice at 9,800×g for 15 min at 4° C. The washed pellet represents the mitochondrial fraction.
The assay coupled the glucose-6-phosphate formed in the hexokinase reaction to the glucose-6-phosphate dehydrogenase reaction. Here, NADP+, oxidizes glucose-6-phosphate to a g-lactone while becoming reduced to NADPH, thus allowing the formation of the latter to be monitored spectrophotometrically at 340 nm. […]

[2] = tested on: Sk-Hep1; test: ATP levels after treatment, Sk-Hep1; assay type: cell-based; conditions: 0.1, 0.2, 0.3 mM for 1 and 3 hours
Experimental: ATP levels were measured in various cell lines, e.g., HepG2, Sk-Hep1, and Vx-2 after 3-bromopyruvate treatment. In each case, cells were treated with increasing concentration of 3-bromopyruvate (0.1 mM, 0.2 mM, and 0.3 mM) for 1 and 3 hours before measuring ATP levels in the cell. FIGS. 5 (A-C) show the ATP depletion observed following 3-bromopyruvate treatment in HepG2, Sk-Hep1, and Vx-2 cell lines, respectively.

[3] = tested on: THLE-2; test: Caspase-3 activity, THLE-2; assay type: cell-based; conditions: 1 mM for 3 hour
Experimental: (§1) Caspase-3 activity and reduced cell viability was also measured in cell lines (HepG2, THLE-2, and VX2 cell lines) following 3-bromopyruvate treatment (1 mM for 3 hour) (FIG. 6A). Caspase-3 activity increased in each cell line following treatment and cell viability decreased following treatment. An increase in caspase-3 activity indicated the mechanism of cell death is apoptotic. FIGS. 6 B and C show cell viability is reduced in each cell line with increasing 3-bromopyruvate concentration after 1 and 3 hours of treatment.

[4] = tested on: VX2; test: Cell viability, VX2; assay type: cell-based, rabbit; conditions: 1 mM for 3 hour
Experimental: as §1

[5] = target: T1, Type II hexokinase (Homo sapiens, UniProt P52789); test: Binding of 14C-labeled 3-bromopyruvate in Hep G2 cells (western blot / autoradiograph); conditions: 1 hour in HBSS
T1 construct: The cells were harvested, total protein extracted, purified and used to run a western blot; endogenous in cells; host or cells: Hep G2
T1 sequence (P52789 1-917): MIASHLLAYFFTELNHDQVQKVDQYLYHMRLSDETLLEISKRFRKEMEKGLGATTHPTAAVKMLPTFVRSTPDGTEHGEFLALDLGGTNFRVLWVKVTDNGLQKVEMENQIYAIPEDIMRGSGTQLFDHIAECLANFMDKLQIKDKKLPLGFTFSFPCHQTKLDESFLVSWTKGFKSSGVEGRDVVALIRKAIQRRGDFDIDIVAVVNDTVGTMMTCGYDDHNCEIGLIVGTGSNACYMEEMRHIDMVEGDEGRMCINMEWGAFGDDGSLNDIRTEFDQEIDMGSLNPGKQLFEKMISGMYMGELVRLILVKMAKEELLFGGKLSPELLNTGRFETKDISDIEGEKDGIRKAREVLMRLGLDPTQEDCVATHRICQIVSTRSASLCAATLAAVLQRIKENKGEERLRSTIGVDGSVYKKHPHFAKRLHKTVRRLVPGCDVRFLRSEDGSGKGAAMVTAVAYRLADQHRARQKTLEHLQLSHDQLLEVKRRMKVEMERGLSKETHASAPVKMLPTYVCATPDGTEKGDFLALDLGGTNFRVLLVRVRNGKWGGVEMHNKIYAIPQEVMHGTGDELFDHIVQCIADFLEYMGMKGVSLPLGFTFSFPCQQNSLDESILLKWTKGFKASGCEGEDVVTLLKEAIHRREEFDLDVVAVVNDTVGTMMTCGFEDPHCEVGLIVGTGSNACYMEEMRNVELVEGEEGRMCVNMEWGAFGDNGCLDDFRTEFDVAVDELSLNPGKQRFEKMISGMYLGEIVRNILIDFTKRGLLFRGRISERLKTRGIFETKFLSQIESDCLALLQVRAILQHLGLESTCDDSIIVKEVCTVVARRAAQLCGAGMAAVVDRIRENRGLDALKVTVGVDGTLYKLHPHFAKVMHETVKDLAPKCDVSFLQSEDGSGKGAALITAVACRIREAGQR
Experimental: In a further study, the human hepatocellular carcinoma cell line (HCC), Hep G2, was treated with ^14C-labeled 3-bromopyruvate for a period of 1 hour in HBSS. The cells were harvested, total protein extracted, purified and used to run a western blot. They were then transferred onto a membrane, probed with a Type II hexokinase specific antibody and the antibody binding signal was captured on film through Chemiluminescent detection system (western blotting). The corresponding gel was also separately exposed to an autoradiograph.

[6] = Acute toxicity study, single IV dose in rabbits; assay type: in vivo, rabbit
Experimental: In addition, an acute toxicity study was performed to determine the effects of 3-bromopyruvate administered IV. Based on the data acquired in rats, rabbits (2 animals per group followed for 1 week) were given 25 ml of 15, 20, and 25 mM 3-bromopyruvate as a single IV dose (i.e., using dose identified for rats).

## O=C(O)C(=O)CBr [3-bromopyruvate]
[1]
  concentration for complete inhibition of hexokinase activity: 5 mM
[2]
  ATP levels: ATP depletion
[3]
  Caspase-3 activity: increased
[4]
  cell viability: decreased
[5]
  binding to Type II hexokinase: directly binds
[6]; 20 mM single IV dose
  organ toxicity: no evidence of any organ toxicity
[6]; 25 ml single IV dose, 1 week
  therapeutic dose, intravenous: 20 mM
[6]; single IV dose
  therapeutic dose, intravenous: 16.8 mg/kg
